In patent US12157746B2, “Tetrahydro-1H-pyrazino[2,1-a]isoindolylquinoline compounds for the treatment of autoimmune disease” (F. HOFFMANN-LA ROCHE AG, priority 2018, dated 2024) one finds IC50 data, which are given here for eleven compounds.

Where only a bound is given, the exact number is not on record here.

The test concerns the target T1, human TLR8 (Homo sapiens, UniProt Q9NR97).
T1 sequence (Q9NR97 27-1041): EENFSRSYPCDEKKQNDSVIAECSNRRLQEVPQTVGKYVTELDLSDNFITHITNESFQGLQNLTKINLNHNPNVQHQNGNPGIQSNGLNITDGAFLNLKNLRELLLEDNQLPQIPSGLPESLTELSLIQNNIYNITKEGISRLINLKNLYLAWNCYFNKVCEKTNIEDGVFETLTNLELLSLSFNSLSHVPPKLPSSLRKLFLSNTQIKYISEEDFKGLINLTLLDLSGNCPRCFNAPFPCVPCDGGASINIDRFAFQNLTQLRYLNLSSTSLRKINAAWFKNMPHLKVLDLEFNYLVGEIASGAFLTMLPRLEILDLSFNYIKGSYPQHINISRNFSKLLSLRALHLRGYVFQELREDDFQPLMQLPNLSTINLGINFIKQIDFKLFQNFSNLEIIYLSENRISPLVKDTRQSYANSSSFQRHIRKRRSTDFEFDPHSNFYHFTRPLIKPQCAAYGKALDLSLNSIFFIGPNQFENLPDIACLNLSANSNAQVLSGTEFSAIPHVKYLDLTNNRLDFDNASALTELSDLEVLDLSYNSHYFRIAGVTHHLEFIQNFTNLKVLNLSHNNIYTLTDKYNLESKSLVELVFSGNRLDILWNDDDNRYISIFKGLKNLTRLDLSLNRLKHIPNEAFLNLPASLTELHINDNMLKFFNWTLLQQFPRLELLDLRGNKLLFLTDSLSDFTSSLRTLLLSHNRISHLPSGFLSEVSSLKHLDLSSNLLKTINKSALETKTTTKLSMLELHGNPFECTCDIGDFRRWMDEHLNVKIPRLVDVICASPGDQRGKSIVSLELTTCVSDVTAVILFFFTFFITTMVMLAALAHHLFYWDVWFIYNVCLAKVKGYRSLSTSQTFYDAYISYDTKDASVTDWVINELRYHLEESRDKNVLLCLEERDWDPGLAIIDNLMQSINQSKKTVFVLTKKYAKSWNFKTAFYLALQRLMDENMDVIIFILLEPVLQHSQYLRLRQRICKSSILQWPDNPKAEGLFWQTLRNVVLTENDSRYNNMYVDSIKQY
The test can be described thus: HEK293-Blue-hTLR-8 cells assay. The settings on record: HEK293-Blue-hTLR8 cells, R848 stimulation, 20 hrs, SEAP reporter; read-out: HEK/hTLR8 IC50. In kind it is cell-based. In a few lines: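 Antagonism read out in HEK293-Blue-hTLR8 cells carrying an NF-κB/AP-1-driven SEAP reporter, stimulated with R848 (10 μL of 60 uM stock added) alongside serially diluted compound (1% DMSO), 20 h at 37° C. Supernatant SEAP measured with QUANTI-Blue after 2 h at 37° C, absorbance at 620-655 nm.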
Regarding `C[C@@H]1CN(c2ccc(Cl)c3ncccc23)C[C@@H]2c3ccc(N[C@H]4CNC[C@H]4F)cc3CN12` [Example 79, (4R,10b)-2-(8-chloro-5-quinolyl)-N-[(3S,4R)-4-fluoropyrrolidin-3-yl]-4-methyl-3,4,6,10b-tetrahydro-1H-pyrazino[2,1-a]isoindol-8-amine], the IC50 amounted to 2.8 nM. In the case of `C[C@@H]1CN(c2ccc(C#N)c3ncccc23)C[C@@H]2c3ccc(N4C[C@@H]5CNCCN5C4=O)cc3CN12` [Example 71, 5-[(4R,10bS)-8-[(8aS)-3-oxo-1,5,6,7,8,8a-hexahydroimidazo[1,5-a]pyrazin-2-yl]-4-methyl-3,4,6,10b-tetrahydro-1H-pyrazino[2,1-a]isoindol-2-yl]quinoline-8-carbonitrile], the IC50 is less than 3.2 nM.

Consider `C[C@@H]1CN(c2ccc(C#N)c3ncccc23)C[C@@H]2c3ccc(N[C@@H]4CCCNC4)cc3CN12` [Example 65, 5-[(4R,10bS)-4-methyl-8-[[(3R)-3-piperidyl]amino]-3,4,6,10b-tetrahydro-1H-pyrazino[2,1-a]isoindol-2-yl]quinoline-8-carbonitrile], for which the IC50 was less than 3.2 nM. In the case of `CO[C@@H]1CNC[C@H]1Nc1cc2c(cc1C)[C@H]1CN(c3ccc(C#N)c4ncccc34)C[C@@H](C)N1C2` [Example 63, 5-[(4R,10bS)-8-[[(3R,4R)-4-methoxypyrrolidin-3-yl]amino]-4,9-dimethyl-3,4,6,10b-tetrahydro-1H-pyrazino[2,1-a]isoindol-2-yl]quinoline-8-carbonitrile] it was 6.2 nM. For `C[C@@H]1CN(c2ccc(C#N)c3ncccc23)C[C@@H]2c3cc(F)c(N4CC5(CNC5)C4)cc3CN12` [Example 84, 5-[(4R,10bS)-8-(2,6-diazaspiro[3.3]heptan-2-yl)-9-fluoro-4-methyl-3,4,6,10b-tetrahydro-1H-pyrazino[2,1-a]isoindol-2-yl]quinoline-8-carbonitrile] the value was 1.3 nM; for `C[C@H]1CN(c2ccc(C#N)c3ncccc23)C[C@H]2c3ccc(N4CCNCC4)cc3CN12` [Example 2, 5-[(4S,10bR)-4-methyl-8-piperazin-1-yl-3,4,6,10b-tetrahydro-1H-pyrazino[2,1-a]isoindol-2-yl]quinoline-8-carbonitrile], less than 3.2 nM.

With `C[C@@H]1CN(c2ccc(C#N)c3ncccc23)C[C@@H]2c3ccc(N4CCNCC4)cc3CN12` [Example 1, 5-[(4R,10bS)-4-methyl-8-piperazin-1-yl-3,4,6,10b-tetrahydro-1H-pyrazino[2,1-a]isoindol-2-yl]quinoline-8-carbonitrile], the IC50 is less than 3.2 nM. In the case of `Cc1ccc(N2C[C@@H](C)N3Cc4cc(N[C@H]5CNC[C@H]5F)ccc4[C@H]3C2)c2cccnc12` [Example 75, (4R,10bS)—N-[(3S,4R)-4-fluoropyrrolidin-3-yl]-4-methyl-2-(8-methyl-5-quinolyl)-3,4,6,10b-tetrahydro-1H-pyrazino[2,1-a]isoindol-8-amine] it was 12.4 nM. For `[2H]c1ccc2c(N3C[C@@H](C)N4Cc5cc(N6CC7(CNCCO7)C6)ccc5[C@H]4C3)ccc(C#N)c2n1` [Example 90, 5-[(4R,10bS)-4-methyl-8-(5-oxa-2,8-diazaspiro[3.5]nonan-2-yl)-3,4,6,10b-tetrahydro-1H-pyrazino[2,1-a]isoindol-2-yl]-2-deuterio-quinoline-8-carbonitrile] the value was less than 0.3 nM. For `C[C@@H]1CN(c2ccc(C#N)c3ncccc23)C[C@@H]2c3cccc(N[C@H]4CNC[C@H]4F)c3CN12` [Example 81, 5-[(4R,10bS)-7-[[(3S,4R)-4-fluoropyrrolidin-3-yl]amino]-4-methyl-3,4,6,10b-tetrahydro-1H-pyrazino[2,1-a]isoindol-2-yl]quinoline-8-carbonitrile] the value was less than 3.2 nM. On to `C[C@@H]1CN(c2ccc(C#N)c3ncccc23)C[C@@H]2c3cccc(NCCN4CC[C@H](O)C4)c3CN12` [Example 80, 5-[(4R,10bS)-7-[2-[(3S)-3-hydroxypyrrolidin-1-yl]ethylamino]-4-methyl-3,4,6,10b-tetrahydro-1H-pyrazino[2,1-a]isoindol-2-yl]quinoline-8-carbonitrile], for which the IC50 was less than 3.2 nM.
